Key:
RAW264.7 cells = experiment: Phagocytosis assay with fluorescent latex beads; assay type: cell-based, murine; details: latex beads 10 per cell, 30 min, peptide 0.31, 1.25 and 5 μM
Method: Red fluorescent (λex 575 nm and λem 610 nm) carboxylate-modified polystyrene latex beads (0.5 μm; Sigma Aldrich, St. Louis, MO, USA) were washed three times with PBS and resuspended in culture medium. Peptide dilutions were prepared in culture medium and added to RAW264.7 cells, directly followed by the latex beads (ratio 10 beads to 1 cell). Cells were incubated for 30 minutes at 37 °C, 5% CO2 (energy-dependent uptake) or 0 °C (non-specific adherence), after which cells were washed extensively with ice-cold PBS supplemented with 1% FCS and 0.01% NaN3, to remove all free beads. After washing, cells were scraped and resuspended in FACS buffer (PBS supplemented with 0.5% BSA). Samples were measured with the BD FACSCanto II flow cytometer (BD Biosciences, San Jose, CA, USA) and analyzed with FlowJo software (Ashland, OR, USA). Mean fluorescence intensity (MFI), corrected for non-specific adherence, was used as an indicator for the number of beads taken up.
While the above-described functions of cathelicidins are well-known, relatively little is known about the influence of cathelicidins on phagocytosis. Therefore, RAW264.7 cells were incubated with fluorescent beads to study the effect of cathelicidins on phagocytosis. The uptake was corrected for fluorescence measured after incubation on ice instead of 37 °C, which inhibits the active process of phagocytosis. After 30 minutes, 90% of the RAW264.7 cells took up latex beads (Fig. 4A). Histograms exemplify changes in bead phagocytosis with different concentrations of K9CATH (Fig. 4B), eCATH-2 (Fig. 4C) and chCATH-3 (Fig. 4D). Effect of all cathelicidins are depicted by the average mean fluorescence intensity (MFI) in Fig. 4E.
Figure 4 Effects of cathelicidins on phagocytosis by RAW264.7 cells. RAW264.7 cells were incubated with cathelicidins (0.31 μM, 1.25 μM, and 5 μM) and red fluorescent latex beads (10 beads to 1 cell) at 37 °C (energy dependent uptake) or on ice (non-specific adherence) for 30 minutes. Histograms show control (no peptide present) bead uptake at 37 °C (gray, filled) and 0 °C (black line) (A), or uptake in presence of different concentrations of indicated cathelicidins (B–D); 0 μM (red, filled), 0.31 μM (black line), 1.25 μM (green line) or 5 μM (blue line). Uptake was quantified by determining the MFI after correction for 0 °C control (E). Results are presented as average +/− SEM (N = 3). Statistical differences were determined by Two-way ANOVA with Bonferroni post-hoc test.

[1] = test system: CCL2 (MCP-1) release by RAW264.7 cells; experiment: Cathelicidin induced CCL2 release; assay type: cell-based, murine; details: 24 h, peptide 0.08-20 μM
Method: (§1) E. coli O78 (Zoetis Animal Health, Kalamazoo, MI, USA), E. coli ATCC 25922, Staphylococcus aureus ATCC 29213, and methicillin resistant Staphylococcus aureus (MRSA) (WKZ-2, human clinical isolate) were grown overnight from a glycerol stock in Mueller Hinton Broth (MHB) (Becton Dickinson, USA). Before use, bacteria were grown to mid-log phase in MHB for 2 hours at 37 °C, 200 RPM. Murine RAW264.7 macrophages (ATCC-TIB-71) were obtained from the American Type Culture Collection (ATCC, Manassas, VA, USA) and cultured in DMEM (41966-029; Thermo Fisher Scientific, Waltham, MA, USA) supplemented with 10% FCS (Bodinco B.V., Alkmaar, the Netherlands) (DMEM + FCS) at 37 °C, 5.0% CO2. Cells were seeded in 96-wells plates at 5 × 10^5 cells/ml or 12-wells plates at 2 × 10^5/ml for adherence overnight prior to stimulation.
ELISA Duoset kits for mouse TNFα, CCL5, CXCL10 and IL-10 were obtained from R&D systems (Minneapolis, MN, USA) and ELISAs were performed according to the manufacturer’s protocol. Samples were stored at −20 °C until analysis and, if needed, diluted in 1% BSA in PBS, pH 7.4. Absorbance at 450 nm was determined in a FLUOstar Omega microplate reader (BMG Labtech GmbH) and corrected for absorbance at 570 nm. Results were analyzed with MARS data analysis software (BMG Labtech GmbH).
Since cathelicidins have membrane-perturbing properties which might affect the host’s cell membrane, first the possible cytotoxicity of the cathelicidins to RAW264.7 cells was assessed. […] Next, RAW264.7 cells were stimulated with the cathelicidins at various concentrations for 2 h and 24 h, after which release of CCL2 (MCP-1), CCL5 (RANTES), CXCL10 (IP-10), TNFα and IL-10 was determined.
Figure 2 Cathelicidin induced chemokine and cytokine release by RAW264.7 cells. RAW264.7 cells were incubated for 2 h and 24 h with cathelicidins (0.08 μM, 0.31 μM, 1.25 μM, 5 μM, and 20 μM), after which the supernatants were harvested and tested for release of CCL2 at 2 h (A) and 24 h (B), CCL5 at 24 h (C) and CXCL10 at 24 h (D). Dotted line represents average cytokine release of control samples. Results are presented as average +/− SEM (N = 3). Statistical differences were determined by Two-way ANOVA with Bonferroni post-hoc test.

[2] = test system: methicillin resistant Staphylococcus aureus (MRSA) (WKZ-2, human clinical isolate); experiment: Bacterial growth delay (Bioscreen C), MRSA; assay type: cell-based
Method: as §1
(§2) Peptides (0.63 to 40 μM) and bacteria mid-log cultures (2 * 10^6 CFU/ml) were prepared in MHB or DMEM + FCS and mixed (100 μl peptide + 100 μl bacterial culture) in a Bioscreen C analyzer plate (Oy Growth Curves Ab Ltd, Helsingfors, Finland). Plates were placed in a Bioscreen C analyzer (Oy Growth Curves Ab Ltd) and bacteria were grown for 16 h at 37 °C with 200 RPM. The OD was measured every 15 minutes using a wideband filter (450–580 nm) to measure bacterial growth. The time needed grow above an OD of 0.6 was determined for all concentrations. Activity of peptides was expressed as the Cmax, the concentration of peptide required to delay the growth for 10 h compared to the control. Or, for peptides with low activity (no Cmax), activity was expressed as the hours of growth delay at 20 μM. Unlike the classic MIC and MBC determination used in microbiology, this method also enabled comparison of peptides with low antibacterial activity.
(§3) Twelve cathelicidins from 6 different species were selected for this study, namely: human LL-37, murine CRAMP, dog K9CATH, equine CATH (eCATH)-1, -2 and -3, chicken CATH (chCATH)-1, -2, and -3, porcine PMAP-23 and -36 and PR-39 (Table 1). Antimicrobial activity against E. coli and MRSA was directly compared under standardized conditions in MHB, a medium optimized for bacterial growth. Bacterial growth delay was defined as the delay in hours for peptide-treated bacteria to reach an OD of 0.6, compared to the non-treated control. Cmax is the minimal concentration needed to delay growth for a minimum of 10 hours compared to the non-treated control (Table 1 and Fig. 1A).
(§4) Figure 1 Antibacterial activity of cathelicidins. E. coli and MRSA (1 × 10^6 CFU/ml) of were grown in MHB or DMEM ± FCS for 16 hours under constant shaking (200 RPM). Every 15 minutes the OD was measured. Growth delay was defined as the time needed for peptide-treated bacteria to grow above an OD of 0.6 compared to the control bacteria (no peptide added) (A). Cathelicidins were tested in different concentrations (0.31 μM, 0.63 μM, 1.25 μM, 2.5 μM, 5 μM, 10 μM, and 20 μM) to determine the antimicrobial activity in MHB against E. coli (B) or MRSA (C) and in more physiological medium DMEM + FCS (D,E). Results are presented as average +/− SEM (N = 4).

E. coli O78 = experiment: Bacterial growth delay (Bioscreen C), E. coli; assay type: cell-based, Escherichia coli; details: for Max: hours growth delay with 20 μM cathelicidin, E. coli, DMEM: DMEM + FCS
Method: as §1, §2, §3, §4

E. coli and MRSA = assay type: cell-based; details: run of Fig. 1A; bacterium and medium not given
Method: In order to compare our Cmax with MBC values, wells without visible bacterial growth were plated out on TSA plates and incubated o/n at 37 °C to determine the presence of viable bacteria.
The antimicrobial capacities were tested under the same conditions and expressed as growth delay instead of the more classical MIC/MBC determination using broth dilution assays. […] The fact that DMEM medium makes S. aureus susceptible to PR-39 is surprising since this peptide is thought to require active uptake by the SbmA transporter, only present in Gram – bacteria. The results obtained in this work, might indicate that the peptide possibly switches to a different mechanism of action with initially a bacteriostatic effect, but more thorough studies are required to elucidate the details of these initial observations.

[3] = MHB, 20 μM peptide, given if no Cmax was reached, N = 4
[4] = 20 μM peptide, given if no Cmax was reached, N = 4

Row | Molecule | Effect on bead uptake (phagocytosis), in words (RAW264.7 cells) | Effect on CCL2 secretion after 24 h stimulation, in words [1] | Cmax, MRSA, DMEM ([2]; DMEM + FCS, 1 × 10^6 CFU/ml, peptide 0.31-20 μM, 16 h, 37 °C, — = no Cmax reached up to 20 μM, N = 4) | Summary class, antimicrobial activity S. aureus DMEM ([2]; DMEM + FCS, MRSA, − is not defined in the key) | Max: hours growth delay with 20 μM cathelicidin, MRSA, MHB [2, 3] | Summary class, antimicrobial activity S. aureus MHB ([2]; MHB, MRSA, − is not defined in the key) | Max: hours growth delay with 20 μM cathelicidin, E. coli, DMEM (E. coli O78; [4]) | Cmax: cathelicidin concentration resulting in a delay in bacterial growth with minimal 10 hours, E. coli, MHB (E. coli O78; MHB, 1 × 10^6 CFU/ml, peptide 0.31-20 μM, 16 h, 37 °C, 200 RPM, time to OD 0.6 vs control, — = no Cmax reached up to 20 μM, N = 4) | Summary class, antimicrobial activity E. coli MHB (E. coli O78; MHB, − is not defined in the key) | Max: hours growth delay with 20 μM cathelicidin, MRSA, DMEM ([2]; DMEM + FCS, 20 μM peptide, given if no Cmax was reached, N = 4) | Activity against E. coli in MHB, in words (E. coli O78; MHB, peptide up to 20 μM) | Max: hours growth delay with 20 μM cathelicidin, E. coli, MHB (E. coli O78; MHB, 20 μM peptide, given if no Cmax was reached, time to OD 0.6 vs control, N = 4) | MBC (E. coli and MRSA)
1 | KRFGRLAKSFLRMRILLPRRKILLAS [eCATH-1, equine CATH-1, 26 residues, charge +9] | did not affect bead uptake | non-significant | 20 µM | +++ (+++ = Cmax at ≤20 μM) | 7.5 h | + (+ = >4 hours inhibition at 20 μM) | 3.5 h | 20 µM | +++ (+++ = Cmax at ≤20 μM) | – | – | – | –
2 | KRFHSVGSLIQRHQQMIRDKSEATRHGIRIITRPKLLLAS [eCATH-3, equine CATH-3, 40 residues, charge +10] | did not affect bead uptake | – | – | – | 0.0 h | – | 1.5 h | – | – | 1.5 h | no or very little activity | 0.0 h | –
3 | CC[C@H](C)[C@H](NC(=O)[C@H](CCCCN)NC(=O)[C@H](CCC(=O)O)NC(=O)[C@H](CCCCN)NC(=O)[C@H](CO)NC(=O)[C@H](CCCCN)NC(=O)[C@H](CCCNC(=N)N)NC(=O)[C@H](Cc1ccccc1)NC(=O)[C@H](Cc1ccccc1)NC(=O)[C@H](CC(=O)O)NC(=O)CNC(=O)[C@H](CC(C)C)NC(=O)[C@@H](N)CC(C)C)C(=O)NCC(=O)N[C@@H](CCCCN)C(=O)N[C@@H](CCC(=O)O)C(=O)N[C@@H](Cc1ccccc1)C(=O)N[C@@H](CCCCN)C(=O)N[C@@H](CCCNC(=N)N)C(=O)N[C@H](C(=O)N[C@H](C(=O)N[C@@H](CCC(N)=O)C(=O)N[C@@H](CCCNC(=N)N)C(=O)N[C@H](C(=O)N[C@@H](CCCCN)C(=O)N[C@@H](CC(=O)O)C(=O)N[C@@H](Cc1ccccc1)C(=O)N[C@@H](CC(C)C)C(=O)N[C@@H](CCCNC(=N)N)C(=O)N[C@@H](CC(N)=O)C(=O)N[C@@H](CC(C)C)C(=O)N[C@H](C(=O)N1CCC[C@H]1C(=O)N[C@@H](CCCNC(=N)N)C(=O)N[C@H](C(=O)N[C@@H](CCC(=O)O)C(=O)N[C@@H](CO)C(=O)O)[C@@H](C)O)C(C)C)[C@@H](C)CC)C(C)C)[C@@H](C)CC [LL-37] | – | – | – | – | – | – | – | – | – | – | – | – | > 20 µM
